Measured values published in patent US20260365628A1, “SUBSTITUTED 3,4-DIHYDROQUINOLINONE INHIBITORS OF TSHR” (Septerna, Inc., priority 2022, published 2026).

Biological target: T1, hTSHR (Homo sapiens, UniProt P16473)
T1 construct: expressed in transfected cells
Experiment: hTSHR TR-FRET cAMP Assay (inhibition of M22-stimulated cAMP production)
Format: cell-based
Details: Expi293F Inducible cells stably expressing hTSHR; cAMP HTRF; stimulated with EC80 of anti-TSHR antibody M22; 15 min compound preincubation, 30 min at 37° C.; read-out: Activity (IC50 bins)
Outline: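 Readout was a cAMP HTRF ratio of 655/620 nm after lysis, scaled between the EC80 M22 signal (0% inhibition) and no-agonist vehicle (100%). Frozen induced Expi293F-hTSHR cells saw test compounds (0.5% DMSO) for 15 min at 37 °C before 30 min of M22 stimulation at EC80.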

T1 sequence (P16473 21-764): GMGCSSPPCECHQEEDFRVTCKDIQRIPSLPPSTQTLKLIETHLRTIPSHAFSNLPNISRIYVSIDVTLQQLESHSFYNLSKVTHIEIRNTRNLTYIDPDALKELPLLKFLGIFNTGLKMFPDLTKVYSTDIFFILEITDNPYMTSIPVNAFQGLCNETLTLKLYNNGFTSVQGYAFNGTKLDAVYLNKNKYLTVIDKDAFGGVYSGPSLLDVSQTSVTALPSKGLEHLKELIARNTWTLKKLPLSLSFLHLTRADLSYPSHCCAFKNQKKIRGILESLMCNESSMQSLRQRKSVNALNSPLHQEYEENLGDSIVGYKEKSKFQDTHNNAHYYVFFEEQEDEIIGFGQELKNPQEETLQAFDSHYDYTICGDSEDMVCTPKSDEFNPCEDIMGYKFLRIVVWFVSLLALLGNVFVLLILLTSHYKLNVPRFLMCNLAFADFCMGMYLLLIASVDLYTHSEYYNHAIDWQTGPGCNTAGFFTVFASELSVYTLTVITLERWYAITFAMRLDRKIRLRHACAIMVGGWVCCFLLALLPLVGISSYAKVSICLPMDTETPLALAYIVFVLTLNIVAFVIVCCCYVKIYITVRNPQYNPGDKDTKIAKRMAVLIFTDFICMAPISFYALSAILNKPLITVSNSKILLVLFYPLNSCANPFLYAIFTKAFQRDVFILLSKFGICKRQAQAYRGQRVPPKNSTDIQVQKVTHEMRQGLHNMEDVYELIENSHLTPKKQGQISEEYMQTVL

SMILES	IC50
C[C@H]1Oc2cc(NC(=O)NC(C)(C)C)c(F)cc2N(Cc2cccc(C(F)F)c2)C1=O [Example 327, (R)-1-(tert-butyl)-3-(4-(3-(difluoromethyl)benzyl)-6-fluoro-2-methyl-3-oxo-3,4-dihydro-2H-benzo[b][1,4]oxazin-7-yl)urea]	< 100 nM
C[C@H]1Oc2cc(NC(=O)NC(C)(C)C)c(F)cc2N([C@@H](C)c2ccccc2)C1=O [Example 328, 1-(tert-butyl)-3-((R)-6-fluoro-2-methyl-3-oxo-4-((S)-1-phenylethyl)-3,4-dihydro-2H-benzo[b][1,4]oxazin-7-yl)urea]	100 to 1000 nM
C[C@H]1Oc2c(cc(F)c(NC(=O)NC(C)(C)C)c2F)N(Cc2ccccc2)C1=O [Example 329, (R)-1-(4-benzyl-6,8-difluoro-2-methyl-3-oxo-3,4-dihydro-2H-benzo[b][1,4]oxazin-7-yl)-3-(tert-butyl)urea]	100 to 1000 nM
C[C@H]1Oc2cc(NC(=O)NC(C)(C)C)c(C(F)(F)F)cc2N(Cc2ccccc2)C1=O [Example 330, (R)-1-(4-benzyl-2-methyl-3-oxo-6-(trifluoromethyl)-3,4-dihydro-2H-benzo[b][1,4]oxazin-7-yl)-3-(tert-butyl)urea]	< 100 nM
C[C@H](c1ccccc1)N1C(=O)[C@@H](C)Oc2cc(NC(=O)NC(C)(C)C)ccc21 [Example 331, 1-(tert-butyl)-3-((R)-2-methyl-3-oxo-4-((R)-1-phenylethyl)-3,4-dihydro-2H-benzo[b][1,4]oxazin-7-yl)urea]	> 1000 nM
Cc1cc2c(cc1NC(=O)NC(C)(C)C)O[C@H](C)C(=O)N2Cc1ccccc1 [Example 332, (R)-1-(4-benzyl-2,6-dimethyl-3-oxo-3,4-dihydro-2H-benzo[b][1,4]oxazin-7-yl)-3-(tert-butyl)urea]	100 to 1000 nM
C[C@H]1Oc2c(cc(F)c(NC(=O)NC(C)(C)C)c2F)N(Cc2cccc(OC(F)F)c2)C1=O [Example 335, 3-tert-butyl-1-[(2R)-4-{[3-(difluoromethoxy)phenyl]methyl}-6,8-difluoro-2-methyl-3-oxo-2H-1,4-benzoxazin-7-yl]urea]	< 100 nM
C[C@H]1Oc2c(cc(F)c(NC(=O)NC(C)(C)C)c2F)N(Cc2cccc(C(F)F)c2)C1=O [Example 336, (R)-1-(tert-butyl)-3-(4-(3-(difluoromethyl)benzyl)-6,8-difluoro-2-methyl-3-oxo-3,4-dihydro-2H-benzo[b][1,4]oxazin-7-yl)urea]	< 100 nM
CC(c1cc(C(F)(F)F)ccn1)n1c(=O)cnc2cc(NC(=O)NC3(C)CCC3)ccc21 (stereo not shown) [Example 337, 1-(1-methylcyclobutyl)-3-(2-oxo-1-(1-(4-(trifluoromethyl)pyridin-2-yl)ethyl)-1,2-dihydroquinoxalin-6-yl)urea]	100 to 1000 nM
C[C@H]1Oc2cc(NC(=O)NC(C)(C)C)c(F)cc2N(Cc2cccc(OC(F)F)c2)C1=O [Example 338, (R)-1-(tert-butyl)-3-(4-(3-(difluoromethoxy)benzyl)-6-fluoro-2-methyl-3-oxo-3,4-dihydro-2H-benzo[b][1,4]oxazin-7-yl)urea]	100 to 1000 nM
C[C@@H](c1cccc(OC(F)(F)F)c1)n1c(=O)cnc2cc(NC(=O)NC(C)(C)C)c(F)cc21 [Example 339, (S)-1-(tert-butyl)-3-(7-fluoro-2-oxo-1-(1-(3-(trifluoromethoxy)phenyl)ethyl)-1,2-dihydroquinoxalin-6-yl)urea]	100 to 1000 nM
C[C@H]1Oc2cc(NC(=O)NC(C)(C)C)c(F)c(F)c2N(Cc2cccc(C(F)F)c2)C1=O [Example 340, (R)-1-(tert-butyl)-3-(4-(3-(difluoromethyl)benzyl)-5,6-difluoro-2-methyl-3-oxo-3,4-dihydro-2H-benzo[b][1,4]oxazin-7-yl)urea]	100 to 1000 nM
C[C@H]1Oc2cc(NC(=O)NC(C)(C)C)c(C#N)cc2N(Cc2ccccc2)C1=O [Example 341, (R)-1-(4-benzyl-6-cyano-2-methyl-3-oxo-3,4-dihydro-2H-benzo[b][1,4]oxazin-7-yl)-3-(tert-butyl)urea]	100 to 1000 nM
C[C@H]1Oc2cc(NC(=O)NC(C)(C)C)c(C#N)cc2N(Cc2cccc(C(F)F)c2)C1=O [Example 342, (R)-1-(tert-butyl)-3-(6-cyano-4-(3-(difluoromethyl)benzyl)-2-methyl-3-oxo-3,4-dihydro-2H-benzo[b][1,4]oxazin-7-yl)urea]	< 100 nM
C[C@@H](c1ccccc1)N1C(=O)CCc2cc(NC(=O)NC(C)(C)C)c(C(F)(F)F)cc21 [Example 343, (S)-1-(tert-butyl)-3-(2-oxo-1-(1-phenylethyl)-7-(trifluoromethyl)-1,2,3,4-tetrahydroquinolin-6-yl) urea]	< 100 nM
C[C@@H](c1ccccc1)n1c(=O)cnc2cc(NC(=O)NC(C)(C)C)c(Cl)cc21 [Example 344, (S)-1-(tert-butyl)-3-(7-chloro-2-oxo-1-(1-phenylethyl)-1,2-dihydroquinoxalin-6-yl)urea]	100 to 1000 nM
CC(C)(C)NC(=O)Nc1c(F)cc2c(c1F)CCC(=O)N2Cc1ccccc1 [Example 345, 1-(1-benzyl-5,7-difluoro-2-oxo-1,2,3,4-tetrahydroquinolin-6-yl)-3-(tert-butyl) urea]	100 to 1000 nM
C[C@@H](c1ccccc1)n1c(=O)cnc2cc(NC(=O)NC(C)(C)C)c(C(F)(F)F)cc21 [Example 346, 3-tert-butyl-1-{2-oxo-1-[(1S)-1-phenylethyl]-7-(trifluoromethyl)quinoxalin-6-yl}urea]	100 to 1000 nM
Cc1cc2c(cc1NC(=O)NC(C)(C)C)ncc(=O)n2[C@@H](C)c1ccccc1 [Example 347, 3-tert-butyl-1-{7-methyl-2-oxo-1-[(1S)-1-phenylethyl]quinoxalin-6-yl}urea]	100 to 1000 nM
C[C@@H](c1ccccc1)n1c(=O)cnc2cc(NC(=O)NC(C)(C)C)c(C3CC3)cc21 [Example 348, 3-tert-butyl-1-{7-cyclopropyl-2-oxo-1-[(1S)-1-phenylethyl]quinoxalin-6-yl}urea]	100 to 1000 nM
C[C@H]1Oc2cc(NC(=O)NC(C)(C)C)c(C(F)(F)F)cc2N([C@@H](C)c2ccccc2)C1=O [Example 349, 1-(tert-butyl)-3-((R)-2-methyl-3-oxo-4-((S)-1-phenylethyl)-6-(trifluoromethyl)-3,4-dihydro-2H-benzo[b][1,4]oxazin-7-yl)urea]	< 100 nM
C[C@@H](c1cccc(OC(F)(F)F)c1)n1c(=O)cnc2c(CO)c(NC(=O)NC(C)(C)C)ccc21 [Example 351, (S)-1-(tert-butyl)-3-(5-(hydroxymethyl)-2-oxo-1-(1-(3-(trifluoromethoxy)phenyl)ethyl)-1,2-dihydroquinoxalin-6-yl)urea]	> 1000 nM
C[C@@H](c1cccc(OC(F)(F)F)c1)n1c(=O)cnc2cc(NC(=O)NC(C)(C)C)c(C#N)cc21 [Example 352, 3-tert-butyl-1-{7-cyano-2-oxo-1-[(1S)-1-[3-(trifluoromethoxy)phenyl]ethyl]quinoxalin-6-yl}urea]	100 to 1000 nM
C[C@@H](c1cccc(OC(F)(F)F)c1)n1c(=O)cnc2c(F)c(NC(=O)NC(C)(C)C)ccc21 [Example 353, 3-tert-butyl-1-{5-fluoro-2-oxo-1-[(1S)-1-[3-(trifluoromethoxy)phenyl]ethyl]quinoxalin-6-yl}urea]	100 to 1000 nM
C[C@H]1Oc2c(cc(C(F)(F)F)c(NC(=O)NC(C)(C)C)c2F)N(Cc2ccccc2)C1=O [Example 354, (R)-1-(4-benzyl-8-fluoro-2-methyl-3-oxo-6-(trifluoromethyl)-3,4-dihydro-2H-benzo[b][1,4]oxazin-7-yl)-3-(tert-butyl)urea]	100 to 1000 nM
